{
  "source": "patent US10519177B2",
  "about": "“Heterocyclic compounds and uses thereof” (Plexxikon Inc., priority 2013, dated 2019)",
  "data": [
    {"target": "BRD4-BD1 (44-164) (Homo sapiens (Human), UniProt O60885)", "assay": "Alphascreen binding assay BRD4-BD1", "details": "BRD4(1) H4; read-out: Biochemical activity (IC50 μM) BRD4(1) H4", "method": "Binding of compounds of formula (I) with bromodomain 2, 3 4 was assessed using Alphascreen binding assay. The inhibition of the interaction between bromodomain and its acetylated target protein (Filippakopoulos P et al. 2012) was measured quantitatively using recombinant BRD proteins, an acetylated Histone 4 peptide and AlphaScreen™ technology. In absence of inhibition the BRD protein bound to AlphaScreen™ nickel chelate acceptor beads can interact with the acetylated Histone 4 peptide which is immobilized by the AlphaScreen™ Streptavidin coated beads. This interaction brings donor and acceptor beads in proximity. The close proximity allows the singlet oxygen produced by laser excitation of the donor beads to reach the acceptor beads and generate a luminescence signal.\nRecombinant human bromodomains containing the N-terminal bromodomain (BRD2-BD1 (71-194), BRD3-BD1 (24-144) and BRD4-BD1 (44-164)) or dual bromodomains (BRD4-BD12 (1-477), BRD4-BD12 (1-472)) were prepared and purified as described in protein expression and purification session. The peptide is human Histone H41-21K5AcK8AcK12AcK16Ac-Biotin (Anaspec CA, USA).\nProtocol for BRD2, BRD3 and BRD4 assay: All components are prepared in buffer composed of 50 mM HEPES pH 7.5, 100 mM NaCl, 0.01% bovine serum albumin (“BSA”), 0.01% Triton X-100, 2 mM dithiothreitol (“DTT”). 7 μL of Bromodomain protein and 7 μL of peptide are added to wells containing 1 μL of various concentrations of test compounds of formula (I) or DMSO vehicle in an Alphaplate (PerkinElmer GA, USA) and incubated for 1 hour at room temperature. 4 μL donor and acceptor bead mixture is then added with final concentrations of 7.5 μg/ml. 30 minutes after bead addition, Alpha signal is read on the Envision spectrometer (λEx 680 nm, λEm 520-620 nm). Final concentrations of bromodomain proteins and peptide are as shown below.\nAll data was normalized to the mean of 16 high and 16 low control wells on each plate. A four parameter curve fit of the following formula was then applied: Y=a+(b−a)/(1+(x/c)^d) Where ‘a’ is the minimum, ‘b’ is the maximum, ‘c’ is the pIC50 and ‘d’ is the Hill slope. Protein Expression and Purification\nRecombinant human bromodomains containing the N-terminal bromodomain (BRD2-BD1 (71-194), BRD3-BD1 (24-144) and BRD4-BD1 (44-164)) or dual bromodomains (BRD4-BD12 (1-477), BRD4-BD12 (1-472)) were expressed in E. coli cells (in a modified pET vector) with an N-terminal six-His tag and purified using a combination of both IMAC (Ni-affinity) and size exclusion chromatography steps.\nRecombinant BRD proteins were expressed using the E. coli strain BL21-CodonPlus (DE3) (Agilent Technologies CA, USA). Cells were grown in Terrific Broth (TB) media to an OD600 of 1.2 at 37° C. at which temperature was reduced to 25° C., protein was induced with 1.0 mM ispropyl-β-D-thiogalactopyranoside (“IPTG”) for 12-18 hours and harvested by centrifugation at 8000×g for 20 minutes. Cells were re-suspended in 0.1M K2PO4 pH 8.0, 250 mM NaCl, 10% Glycerol, 0.75% NP-40, 25 mM Imidazole, 5 mM beta-mercaptoethanol (“BME”) with 0.2 mg/ml Lysosyme, 2.0 mM phenylmethanesulfonyl fluoride (“PMSF”), 25 μg/ml DNAse I, incubated on ice for 30 minutes and lyzed with a cell disruptor (MicroFluidics MA, USA). The lysate was clarified by centrifugation at 20,000×g for 2 hours. The protein was captured with Ni-NTA resin (Life Technologies, USA). Contaminating proteins were washed off with 25 mM Tris-HCl pH 8.3, 250 mM NaCl, 12% Glycerol and 50 mM Imidazole. Following 3× wash steps, protein was eluted step wise using a 50 mM HEPES pH 7.5, 500 mM NaCl and 400 mM Imidazole. The protein was further purified using Gel Filtration column 26/600 Superdex 200 (GE Biosciences NJ, USA) in 50 mM HEPES pH 7.5, 250 mM NaCl. The protein was aliquoted and flash-frozen in liquid Nitrogen.", "units": {"IC50": "µM"}, "values": [
      {"smiles": "Cc1noc(C)c1-c1cnc2[nH]cc(P(C)(=O)c3ccccc3)c2c1", "note": "(stereo not drawn) [P-0165, 3,5-dimethyl-4-[3-[methyl(phenyl)phosphoryl]-1H-pyrrolo[2,3-b]pyridin-5-yl]isoxazole]", "IC50": "< 1"},
      {"smiles": "Cc1noc(C)c1-c1cnc2[nH]cc(C(O)c3c(F)cccc3Cl)c2c1", "note": "(stereo not drawn) [P-0021, (2-chloro-6-fluoro-phenyl)-[5-(3,5-dimethylisoxazol-4-yl)-1H-pyrrolo[2,3-b]pyridin-3-yl]methanol]", "IC50": "< 1"},
      {"smiles": "Cc1noc(C)c1-c1cnc2c(-c3cnn(C(F)F)c3)cn(S(=O)(=O)C3CCC3)c2c1", "note": "[P-0134, 4-[1-cyclobutyl-sulfonyl-3-[1-(difluoro-methyl)pyrazol-4-yl]pyrrolo[3,2-b]pyridin-6-yl]-3,5-dimethyl-isoxazole]", "IC50": "< 1"},
      {"smiles": "CCCS(=O)(=O)n1cc(-c2cnn(C)c2)c2ncc(-c3c(C)noc3C)cc21", "note": "[P-0111, 3,5-dimethyl-4-[3-(1-methylpyrazol-4-yl)-1-propylsulfonyl-pyrrolo[3,2-b]pyridin-6-yl]isoxazole]", "IC50": "< 1"},
      {"smiles": "CCCS(=O)(=O)n1cc(-c2cnn(C3CCOC3)c2)c2ncc(-c3c(C)noc3C)cc21", "note": "(stereo not drawn) [P-0154, 3,5-dimethyl-4-[1-propylsulfonyl-3-(1-tetrahydrofuran-3-ylpyrazol-4-yl)pyrrolo[3,2-b]pyridin-6-yl]isoxazole]", "IC50": "< 1"},
      {"smiles": "Cc1noc(C)c1-c1cnc2c(-c3cnn(C4CC4)c3)cn(C(C)c3ccccc3)c2c1", "note": "(stereo not drawn) [P-0216, 4-[3-(1-cyclopropylpyrazol-4-yl)-1-(1-phenylethyl)pyrrolo[3,2-b]pyridin-6-yl]-3,5-dimethyl-isoxazole]", "IC50": "< 1"},
      {"smiles": "COC(c1ccccc1Cl)c1c[nH]c2ncc(-c3c(C)noc3C)cc12", "note": "(stereo not drawn) [P-0020, 4-[3-[(2-chlorophenyl)-methoxy-methyl]-1H-pyrrolo[2,3-b]pyridin-5-yl]-3,5-dimethyl-isoxazole]", "IC50": "< 1"},
      {"smiles": "COc1ncc(-c2cn(S(=O)(=O)C3CCCC3)c3cc(-c4c(C)noc4C)cnc23)cn1", "note": "[P-0105, 4-[1-cyclopentylsulfonyl-3-(2-methoxypyrimidin-5-yl)pyrrolo[3,2-b]pyridin-6-yl]-3,5-dimethyl-isoxazole]", "IC50": "< 1"},
      {"smiles": "Cc1noc(C)c1-c1cnc2ccn(S(=O)(=O)c3ccccc3)c2c1", "note": "[P-0038, 4-[1-(benzenesulfonyl)pyrrolo[3,2-b]pyridin-6-yl]-3,5-dimethyl-isoxazole]", "IC50": "< 1"},
      {"smiles": "Cc1noc(C)c1-c1cnc2c(-c3cnn(C)c3)cn(C(CC#N)C3CCCC3)c2c1", "note": "(stereo not drawn) [P-0197, 3-cyclopentyl-3-[6-(3,5-dimethylisoxazol-4-yl)-3-(1-methylpyrazol-4-yl)pyrrolo[3,2-b]pyridin-1-yl]propanenitrile]", "IC50": "< 1"},
      {"smiles": "Cc1noc(C)c1-c1cnc2[nH]cc(Cc3cccc4c3OC(F)(F)O4)c2c1", "note": "[P-0048, 4-[3-[(2,2-difluoro-1,3-benzodioxol-4-yl)methyl]-1H-pyrrolo[2,3-b]pyridin-5-yl]-3,5-dimethyl-isoxazole]", "IC50": "< 1"},
      {"smiles": "Cc1noc(C)c1-c1cnc2[nH]cc(CC3CCC(F)(F)CC3)c2c1", "note": "[P-0034, 4-[3-[(4,4-difluoro-cyclohexyl)methyl]-1H-pyrrolo[2,3-b]pyridin-5-yl]-3,5-dimethyl-isoxazole]", "IC50": "< 1"},
      {"smiles": "Cc1noc(C)c1-c1cnc2c(-c3cnn(C)c3)cn(S(=O)(=O)c3ccc(F)cc3)c2c1", "note": "[P-0123, 4-[1-(4-fluorophenyl)sulfonyl-3-(1-methyl-pyrazol-4-yl)pyrrolo[3,2-b]pyridin-6-yl]-3,5-dimethyl-isoxazole]", "IC50": "< 1"},
      {"smiles": "Cc1noc(C)c1-c1cnc2[nH]cc(C(O)c3ccccc3Cl)c2c1", "note": "(stereo not drawn) [P-0019, (2-chlorophenyl)-[5-(3,5-dimethylisoxazol-4-yl)-1H-pyrrolo[2,3-b]pyridin-3-yl]methanol]", "IC50": "< 1"},
      {"smiles": "Cc1noc(C)c1-c1cnc2c(-c3cnn(C(F)F)c3)cn(CC3CCC(F)(F)CC3)c2c1", "note": "[P-0210, 4-[1-[(4,4-difluorocyclohexyl)methyl]-3-[1-(difluoromethyl)pyrazol-4-yl]pyrrolo[3,2-b]pyridin-6-yl]-3,5-dimethyl-isoxazole]", "IC50": "< 1"},
      {"smiles": "Cc1noc(C)c1-c1cnc2c(-c3cnc(C4CC4)nc3)cn(S(=O)(=O)C3CCCC3)c2c1", "note": "[P-0103, 4-[1-cyclopentyl-sulfonyl-3-(2-cyclopropylpyrimidin-5-yl)pyrrolo[3,2-b]pyridin-6-yl]-3,5-dimethyl-isoxazole]", "IC50": "< 1"},
      {"smiles": "Cc1noc(C)c1-c1cnc2c(-c3cnn(C4CCCCO4)c3)cn(S(=O)(=O)c3ccccc3)c2c1", "note": "(stereo not drawn) [P-0168, 4-[1-(benzenesulfonyl)-3-(1-tetrahydropyran-2-ylpyrazol-4-yl)pyrrolo[3,2-b]pyridin-6-yl]-3,5-dimethyl-isoxazole]", "IC50": "< 1"},
      {"smiles": "Cc1noc(C)c1-c1cnc2[nH]cc(C(O)c3ccc(OCC(F)(F)F)nc3)c2c1", "note": "(stereo not drawn) [P-0012, [5-(3,5-dimethylisoxazol-4-yl)-1H-pyrrolo[2,3-b]pyridin-3-yl]-[6-(2,2,2-trifluoroethoxy)-3-pyridyl]methanol]", "IC50": "< 1"},
      {"smiles": "Cc1noc(C)c1-c1cnc2[nH]cc(C(O)C3CCC(F)(F)CC3)c2c1", "note": "(stereo not drawn) [P-0030, (4,4-difluorocyclohexyl)-[5-(3,5-dimethylisoxazol-4-yl)-1H-pyrrolo[2,3-b]pyridin-3-yl]methanol]", "IC50": "< 1"},
      {"smiles": "Cc1noc(C)c1-c1cnc2[nH]cc(Sc3ccccc3)c2c1", "note": "[P-0144, 3,5-dimethyl-4-(3-phenylsulfanyl-1H-pyrrolo[2,3-b]pyridin-5-yl)isoxazole]", "IC50": "< 1"},
      {"smiles": "Cc1noc(C)c1-c1cnc2c(I)cn(C(C)c3ccccc3)c2c1", "note": "(stereo not drawn) [P-0224, 4-[3-iodo-1-(1-phenylethyl)pyrrolo[3,2-b]pyridin-6-yl]-3,5-dimethyl-isoxazole]", "IC50": "< 1"},
      {"smiles": "COc1ncc(F)cc1C(OC)c1c[nH]c2ncc(-c3c(C)noc3C)cc12", "note": "(stereo not drawn) [P-0011, 4-[3-[(5-fluoro-2-methoxy-3-pyridyl)-methoxy-methyl]-1H-pyrrolo[2,3-b]pyridin-5-yl]-3,5-dimethyl-isoxazole]", "IC50": "< 1"},
      {"smiles": "Cc1noc(C)c1-c1cnc2c(-c3cnn(C)c3)cn(CC3(F)CCCCC3)c2c1", "note": "[P-0212, 4-[1-[(1-fluorocyclohexyl)methyl]-3-(1-methylpyrazol-4-yl)pyrrolo[3,2-b]pyridin-6-yl]-3,5-dimethyl-isoxazole]", "IC50": "< 1"},
      {"smiles": "Cc1noc(C)c1-c1cnc2c(-c3cc(C(F)(F)F)n[nH]3)cn(C(C)c3ccccc3)c2c1", "note": "(stereo not drawn) [P-0215, 3,5-dimethyl-4-[1-(1-phenylethyl)-3-[3-(trifluoromethyl)-1H-pyrazol-5-yl]pyrrolo[3,2-b]pyridin-6-yl]isoxazole]", "IC50": "< 1"},
      {"smiles": "Cc1noc(C)c1-c1cnc2[nH]cc(C3=CCC(F)(F)CC3)c2c1", "note": "[P-0029, 4-[3-(4,4-difluorocyclo-hexen-1-yl)-1H-pyrrolo[2,3-b]pyridin-5-yl]-3,5-dimethyl-isoxazole]", "IC50": "< 1"},
      {"smiles": "Cc1noc(C)c1-c1cnc2c(-c3cnn(C)c3)cn(S(=O)(=O)C3CCCC3)c2c1", "note": "[P-0112, 4-[1-cyclopentyl-sulfonyl-3-(1-methyl-pyrazol-4-yl)pyrrolo[3,2-b]pyridin-6-yl]-3,5-dimethyl-isoxazole]", "IC50": "< 1"},
      {"smiles": "C=CCn1cc(-c2cn(S(=O)(=O)C3CC3)c3cc(-c4c(C)noc4C)cnc23)cn1", "note": "[P-0139, 4-[3-(1-allylpyrazol-4-yl)-1-cyclopropyl-sulfonyl-pyrrolo[3,2-b]pyridin-6-yl]-3,5-dimethyl-isoxazole]", "IC50": "< 1"}
    ]}
  ]
}
